Experimental data reported in patent US7531576B2, “Biphenyl derivatives” (Pola Chemical Industries, Inc., priority 2000, dated 2009).

Biological target: ACAT
Assay: Evaluation of ACAT inhibitory activity (rat liver enzyme preparation, [14C]-oleoyl CoA substrate)
Assay type: biochemical
Conditions: ACAT from liver of rats on high-cholesterol feed; 30° C.; pIC50 from concentration-response curve by the nonlinear least square method
Description: IR (cm^−1) (KBr): • 1517, 1521, 2962. Test (Evaluation of ACAT Inhibitory Activity) (1) Preparation of the Enzyme (ACAT)
(1-1) Each rat was reared for about 3 weeks on high-cholesterol feed (solid feed prepared by adding 1% of cholesterol, 0.3% of sodium cholate, 0.1% of propylthiouracil and 3% of lard to a conventional feed MF).
(1-2) The liver of the rat reared in (1-1) was collected and shredded. 10 mM HEPES buffer (pH 7.4) which contained 0.25 M of sucrose and 1 mM of EDTA was added in an amount about three times as much as the weight of the liver to suspend the latter. The liver was then homogenized by a glass-Teflon homogenizer.
(1-3) The homogenized liver was centrifuged for 15 minutes under 22000×g, and the supernatant was collected.
(1-4) The supernatant was centrifuged further for 60 minutes under 100000×g. To the precipitates, 10 mM HEPES buffer (pH 7.4) containing 0.25 M of sucrose and 1 mM of EDTA therein was added in about a half of the volume used in (1-2), and the precipitates were suspended again.
(1-5) The suspension was again centrifuged for 60 minutes under 100000×g, and the resulting precipitates were collected. 10 mM HEPES buffer (pH 7.4) containing 0.25 M of sucrose and 2 mM of DTT therein was added to suspend the precipitates. The suspension was stored at −80° C.
(2) Preparation of Reagents
0.75 M Phosphate buffer (pH 7.4), 800 μM BSA and 100 mM DTT were mixed together in amounts of 1.0 mL, 0.5 mL and 0.1 mL, respectively, and ultrapure water (3.4 mL) was added.
A refrigerated sample of the enzyme was diluted with the “reaction buffer” described above to 2.5 mg protein/mL.
10^−3 M Solutions of the compounds to be evaluated were prepared with methanol. 3×10^−4 M Solutions were each prepared by adding 50% methanol (700 μL) to the corresponding 10^−3 M solution (300 μL). 10^−4 M Solutions were each prepared by adding 50% methanol (600 μL) to the corresponding […] solution (300 μL). Up to 10^−7 M solutions (serial 3-fold dilutions), the solutions were prepared by a similar procedure.
(3) Assay Method of ACAT Activity
(3-1) ACAT (20 μL), the reaction buffer (20 μL) and desired one (5 μL) of test samples were placed in a 1.5 mL test tube and incubated at 30° C. for 10 minutes (the resulting solution will hereinafter be called “I”).
(3-2) Reaction substrate [^14C]-oleoyl CoA (5 μL) was added into “I”, and was allowed to react at 30° C. for 4 minutes.
(3-3) Four minutes later, methanol (250 μL) was added to terminate the reaction, and then, a lipid mixture (40 μL), recovery-percentage-correcting [^3H]-cholesteryl oleate (10 μL) and hexane (700 μL) were added into the test tube (this solution will hereinafter be called “II”).
(3-4) “II” was stirred in a mixer, and the hexane layer (500 μL) was collected and transferred into another test tube (this solution will hereinafter be called “III”).
(3-5) “III” was evaporated to dryness, dissolved in chloroform (10 μL), and then spotted on a TLC plate. At that time, cholesteryl oleate was also spotted.
(3-6) After the spots were dried, they were developed with a 85:15:0.5 mixture of hexane, diethyl ether and acetic acid as a developer solvent, and then stained with iodine. A plate section corresponding to the spot of cholesteryl oleate was cut out and placed in a vial. At the same time, the reaction substrate [^14C]-oleoyl CoA (5 μL) and the recovery-percentage-correcting [^3H]-cholesteryl oleate (10 μL) were spotted on the TLC plate, and similarly, plate sections were cut out and placed in vials, respectively.
(3-7) Subsequently, “Aquazole II” (about 10 mL) was added to the vials. After the vials were allowed to stand for a while, they were measured for [^14C] and [^3H] radioactivities.
Using the radioactivities, the % recovery of [^14C]-cholesteryl oleate formed by the enzymatic reaction was calculated from the radioactivity of [^3H], and from the radioactivity of [^14C], the yield of cholesteryl oleate was calculated. […]

Compound	PIC50
CCCCCN(Cc1ccc(-c2ccccc2-c2nnn[nH]2)cc1)C(=O)Nc1c(C(C)C)cccc1C(C)C [Compound of the formula (4), N-(2,6-Diisopropylphenyl)-N′-pentyl-N′-[[2′-(1H-tetrazol-5-yl)-1,1′-biphenyl-4-yl]methyl]urea]	5.72
CCCCCN(Cc1ccc(-c2ccccc2-c2nnn[nH]2)cc1)C(=O)Nc1c(C)cc(C)cc1C [Compound of the formula (5), N′-Pentyl-N′-[[2′-(1H-tetrazol-5-yl)-1,1′-biphenyl-4-yl]methyl]-N-(2,4,6-trimethylphenyl)urea]	5.65
CCCCCN(Cc1ccc(-c2ccccc2-c2nnn[nH]2)cc1)C(=O)Nc1c(F)cc(F)cc1F [Compound of the formula (6), N′-Pentyl-N′-[[2′-(1H-tetrazol-5-yl)-1,1′-biphenyl-4-yl]methyl]-N-(2,4,6-trifluorophenyl)urea]	5.52
CCCCCCCN(Cc1ccc(-c2ccccc2-c2nnn[nH]2)cc1)C(=O)Nc1c(F)cc(F)cc1F [Compound of the formula (7), N′-Heptyl-N′-[[2′-(1H-tetrazol-5-yl)-1,1′-biphenyl-4-yl]methyl]-N-(2,4,6-trifluorophenyl)urea]	6.23
CCCCCCCN(Cc1ccc(-c2ccccc2-c2nnn[nH]2)cc1)C(=O)Nc1ccc(F)cc1F [Compound of the formula (8), N-(2,4-Difluorophenyl)-N′-heptyl-N′-[[2′-(1H-tetrazol-5-yl)-1,1′-biphenyl-4-yl]methyl]urea]	5.49
CCCCCCCN(Cc1ccc(-c2ccccc2-c2nnn[nH]2)cc1)C(=O)NC1CCCCC1 [Compound of the formula (9), N-Cyclohexyl-N′-heptyl-N′-[[2′-(1H-tetrazol-5-yl)-1,1′-biphenyl-4-yl]methyl]urea]	5.18
CCCCCN(Cc1ccc(-c2ccccc2NC(=O)C(F)(F)F)cc1)C(=O)Nc1c(F)cc(F)cc1F [Compound of the formula (10), N′-Pentyl-N′-[[2′-[[(trifluoromethyl)carbonyl]-amino]-1,1′-biphenyl-4-yl]methyl]-N-(2,4,6-trifluorophenyl)urea]	6.57
CCCCCN(Cc1ccc(-c2ccccc2NS(=O)(=O)C(F)(F)F)cc1)C(=O)Nc1c(F)cc(F)cc1F [Compound of the formula (11), N′-Pentyl-N′-[[2′-[[(trifluoromethyl)sulfonyl]-amino]-1,1′-biphenyl-4-yl]methyl]-N-(2,4,6-trifluorophenyl)urea]	5.71
CCCCCCCN(Cc1ccc(-c2ccccc2S(=O)(=O)NC(=O)Nc2c(C(C)C)cccc2C(C)C)cc1)C(=O)Nc1c(F)cc(F)cc1F [Compound of the formula (12), N′-[[2′-[[[[(2,6-Diisopropylphenyl)amino]-carbonyl]amino]sulfonyl]-1,1′-biphenyl-4-yl]methyl]-N′-heptyl-N-(2,4,6-trifluorophenyl)urea]	6.40
CCCCCN(CC(=O)Nc1c(C(C)C)cccc1C(C)C)Cc1ccc(-c2ccccc2-c2nnn[nH]2)cc1 [Compound of the formula (13), N-[[[(2,6-Diisopropylphenyl)amino]carbonyl]methyl]-N-pentyl-N-[[2′-(1H-tetrazol-5-yl)-1,1′-biphenyl-4-yl]methyl]amine]	5.39
CCCCCN(CC(=O)Nc1c(C)cc(C)cc1C)Cc1ccc(-c2ccccc2-c2nnn[nH]2)cc1 [Compound of the formula (14), N-Pentyl-N-[[2′-(1H-tetrazol-5-yl)-1,1′-biphenyl-4-yl]methyl]-N-[[[(2,4,6-trimethylphenyl)amino]-carbonyl]methyl]amine]	5.23
CCCCCN(CC(=O)Nc1c(F)cc(F)cc1F)Cc1ccc(-c2ccccc2-c2nnn[nH]2)cc1 [Compound of the formula (15), N-Pentyl-N-[[2′-(1H-tetrazol-5-yl)-1,1′-biphenyl-4-yl]methyl]-N-[[[(2,4,6-trifluorophenyl)amino]-carbonyl]methyl]amine]	5.21
